The results in this text go back to patent publication US12692254B2, “Benzimidazole inhibitors of PAD enzymes” (BRISTOL-MYERS SQUIBB COMPANY, priority 2018, dated 2026).

The test deals with human PAD4 (hPAD4) (Homo sapiens, UniProt Q9UM07). Kind of test: RFMS human PAD4 functional assay (rapid-fire mass spectrum). To be noted: 5 nM hPAD4 enzyme, 250 μM BAEE, 50 μM Calcium; 30 min preincubation, 90 min reaction at 37° C. It is filed as biochemical. In a few lines:
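PAD4 (10 nM) preincubated 30 min with compound (top final 50 μM), then BAEE substrate added in pH 7.5 HEPES buffer with DTT, 50 μM calcium, TPEN; 90 min at 37° C. After TCA quench, citrulline derivatized with phenyl glyoxal (4 mM final, 30 min, 37° C) and quantified by RapidFire MS against internal standard.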

human PAD4 (hPAD4), sequence (Q9UM07 whole entry): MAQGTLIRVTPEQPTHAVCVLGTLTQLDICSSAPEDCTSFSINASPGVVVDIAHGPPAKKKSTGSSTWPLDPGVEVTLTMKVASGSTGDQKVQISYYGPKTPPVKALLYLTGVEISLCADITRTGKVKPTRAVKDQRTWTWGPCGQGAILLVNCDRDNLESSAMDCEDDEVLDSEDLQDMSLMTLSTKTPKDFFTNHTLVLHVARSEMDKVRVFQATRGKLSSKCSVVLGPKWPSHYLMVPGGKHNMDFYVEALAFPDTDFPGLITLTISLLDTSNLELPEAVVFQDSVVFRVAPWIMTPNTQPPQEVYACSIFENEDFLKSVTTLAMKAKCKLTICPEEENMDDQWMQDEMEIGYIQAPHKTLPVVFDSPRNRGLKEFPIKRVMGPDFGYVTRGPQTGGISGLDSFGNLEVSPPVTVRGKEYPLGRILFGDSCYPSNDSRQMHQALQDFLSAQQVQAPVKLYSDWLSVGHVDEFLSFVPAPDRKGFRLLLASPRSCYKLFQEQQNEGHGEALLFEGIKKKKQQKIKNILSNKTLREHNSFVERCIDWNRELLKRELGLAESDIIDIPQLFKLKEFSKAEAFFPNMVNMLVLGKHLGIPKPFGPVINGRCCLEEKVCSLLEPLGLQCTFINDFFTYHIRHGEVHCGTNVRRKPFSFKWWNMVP

In the case of `COc1cc(C(=O)N2CC3CCC2[C@@H]3N)cc2nc(-c3cc4ccccc4n3CC3CC3)n(CC3CC3c3ccccc3)c12` (stereo partly drawn) [Example 479, (7R)-2-{2-[1-(cyclopropylmethyl)-1H-indol-2-yl]-7-methoxy-1-[(2-phenylcyclopropyl)methyl]-1H-1,3-benzodiazole-5-carbonyl}-2-azabicyclo[2.2.1]heptan-7-amine], the 50% inhibitory concentration (IC50) (usually the concentration at which inhibition is half-maximal) came out at 212 nM.

Regarding `COc1cc(C(=O)N2CC3CCC2[C@@H]3N)cc2nc(-c3cc4ccccc4n3CC3CC3)n(CC3CN(C(=O)c4ccnc(Cl)c4)C3)c12` (stereo partly drawn) [Example 424, (7R)-2-(1-{[1-(2-chloropyridine-4-carbonyl)azetidin-3-yl]methyl}-2-[1-(cyclopropylmethyl)-1H-indol-2-yl]-7-methoxy-1H-1,3-benzodiazole-5-carbonyl)-2-azabicyclo[2.2.1]heptan-7-amine], the IC50 turned out to be 25 nM.

In the case of `COc1cc(C(=O)N2C[C@H]3CC[C@@H]2[C@@H]3N)cc2nc(-c3cc4cccnc4n3CC3CC3)n(CC3CN(c4ccnc(S(C)(=O)=O)n4)C3)c12` [Example 13, (1R,4R,7R)-2-{2-[1-(cyclopropylmethyl)-1H-pyrrolo[2,3-b]pyridin-2-yl]-1-{[1-(2-methanesulfonylpyrimidin-4-yl)azetidin-3-yl]methyl}-7-methoxy-1H-1,3-benzodiazole-5-carbonyl}-2-azabicyclo[2.2.1]heptan-7-amine], the half-inhibitory concentration (IC50) turned out to be 38 nM. Consider `COc1cc(C(=O)N2CC3CCC2[C@@H]3N)cc2nc(-c3cc4cccnc4n3CC3CC3)n(CC3CN(C(=O)c4ccc(Cl)cc4)C3)c12` (stereo partly drawn) [Example 429, (7R)-2-(1-{[1-(4-chlorobenzoyl)azetidin-3-yl]methyl}-2-[1-(cyclopropylmethyl)-1H-pyrrolo[2,3-b]pyridin-2-yl]-7-methoxy-1H-1,3-benzodiazole-5-carbonyl)-2-azabicyclo[2.2.1]heptan-7-amine], for which the IC50 worked out at 29 nM. For the molecule `COc1cc(C(=O)N2CC3CCC2[C@@H]3N)cc2nc(-c3cc4cccnc4n3CC3CC3)n(Cc3cnn(-c4cncc(Cl)c4)c3)c12` (stereo partly drawn) [Example 383, (7R)-2-(1-{[1-(5-chloropyridin-3-yl)-1H-pyrazol-4-yl]methyl}-2-[1-(cyclopropylmethyl)-1H-pyrrolo[2,3-b]pyridin-2-yl]-7-methoxy-1H-1,3-benzodiazole-5-carbonyl)-2-azabicyclo[2.2.1]heptan-7-amine], the IC50 was 41 nM. Take `COc1cc(C(=O)N2C[C@H]3CC[C@@H]2[C@@H]3N)cc2nc(-c3cc4cccnc4n3CC3CC3)n(CC3CCN(C(=O)c4ccncn4)CC3)c12` [Example 233, (1R,4R,7R)-2-{2-[1-(cyclopropylmethyl)-1H-pyrrolo[2,3-b]pyridin-2-yl]-7-methoxy-1-{[1-(pyrimidine-4-carbonyl)piperidin-4-yl]methyl}-1H-1,3-benzodiazole-5-carbonyl}-2-azabicyclo[2.2.1]heptan-7-amine]: the IC50 came out at 315 nM.

Regarding `N[C@@H]1C2CCC1N(C(=O)c1cc(Cl)c3c(c1)nc(-c1cc4ccccc4n1CC1CC1)n3CC1CN(C(=O)c3ccccc3)C1)C2` (stereo partly drawn) [Example 143, (1R,4R,7R)-2-{1-[(1-benozylazetidin-3-yl)methyl]-7-chloro-2-[1-(cyclopropylmethyl)-1H-indol-2-yl]-1H-1,3-benzodiazole-5-carbonyl}-2-azabicyclo[2.2.1]heptan-7-amine], the IC50 worked out at 23 nM. On to `COc1ccc2cc(-c3nc4cc(C(=O)N5C[C@H]6CC[C@@H]5[C@@H]6N)cc(OC)c4n3CC3CN(c4cccc(C#N)n4)C3)n(CC3CC3)c2n1` [Example 54, 6-[3-({5-[(1R,4R,7R)-7-amino-2-azabicyclo[2.2.1]heptane-2-carbonyl]-2-[1-(cyclopropylmethyl)-6-methoxy-1H-pyrrolo[2,3-b]pyridin-2-yl]-7-methoxy-1H-1,3-benzodiazol-1-yl}methyl)azetidin-1-yl]pyridine-2-carbonitrile], for which the IC50 is 162 nM. On to `COc1cc(C(=O)N2C[C@H]3CC[C@@H]2[C@@H]3N)cc2nc(-c3cc4ccccc4n3C)n(CC3CN(c4cncc(C#N)n4)C3)c12` [Example 41, 6-[3-({5-[(1R,4R,7R)-7-amino-2-azabicyclo[2.2.1]heptane-2-carbonyl]-7-methoxy-2-(1-methyl-1H-indol-2-yl)-1H-1,3-benzodiazol-1-yl}methyl)azetidin-1-yl]pyrazine-2-carbonitrile], for which the half-maximal inhibitory concentration (IC50) was determined as 100 nM. For the molecule `COc1cc(C(=O)N2CC3CCC2[C@@H]3N)cc2nc(-c3cc4cccnc4n3CC3CC3)n(Cc3cc(C)nn3C)c12` (stereo partly drawn) [Example 494, (7R)-2-{2-[1-(cyclopropylmethyl)-1H-pyrrolo[2,3-b]pyridin-2-yl]-1-[(1,3-dimethyl-1H-pyrazol-5-yl)methyl]-7-methoxy-1H-1,3-benzodiazole-5-carbonyl}-2-azabicyclo[2.2.1]heptan-7-amine], the 50% inhibitory concentration (IC50) was found to be 86 nM.

On to `COc1cc(C(=O)N2C[C@H]3CC[C@@H]2[C@@H]3N)cc2nc(-c3cc4ccccc4n3CC3CC3)n(CC3CN(C(=O)c4ccccc4)C3)c12` [Example 145, (1R,4R,7R)-2-{1-[(1-benzoylazetidin-3-yl)methyl]-2-[1-(cyclopropylmethyl)-1H-indol-2-yl]-7-methoxy-1H-1,3-benzodiazole-5-carbonyl}-2-azabicyclo[2.2.1]heptan-7-amine], for which the IC50 is 18 nM. For `CC#CC(=O)N1CC(Cn2c(-c3cc4cccnc4n3CC3CC3)nc3cc(C(=O)N4C[C@H]5CC[C@@H]4[C@@H]5N)cc(OC)c32)C1` [Example 104, 1-[3-({5-[(1R,4R,7R)-7-amino-2-azabicyclo[2.2.1]heptane-2-carbonyl]-2-[1-(cyclopropylmethyl)-1H-pyrrolo[2,3-b]pyridin-2-yl]-7-methoxy-1H-1,3-benzodiazol-1-yl}methyl)azetidin-1-yl]but-2-yn-1-one], the IC50 is 27 nM. Then `COc1cc(C(=O)N2C[C@H]3CC[C@@H]2[C@@H]3N)cc2nc(-c3cccn3CC3CC3)n(CC3CN(c4ccnc(C)n4)C3)c12` [Example 314, (1R,4R,7R)-2-{2-[1-(cyclopropylmethyl)-1H-pyrrol-2-yl]-7-methoxy-1-{[1-(2-methylpyrimidin-4-yl)azetidin-3-yl]methyl}-1H-1,3-benzodiazole-5-carbonyl}-2-azabicyclo[2.2.1]heptan-7-amine], with 552 nM; and `Cc1cc(C(=O)N2CC3CCC2[C@@H]3N)cc2nc(-c3cc4cccnc4n3CC3CC3)n(CC3CN(C(=O)c4ccccc4)C3)c12` (stereo partly drawn) [Example 458, (7R)-2-{1-[(1-benozylazetidin-3-yl)methyl]-2-[1-(cyclopropylmethyl)-1H-pyrrolo[2,3-b]pyridin-2-yl]-7-methyl-1H-1,3-benzodiazole-5-carbonyl}-2-azabicyclo[2.2.1]heptan-7-amine], with 65 nM; and `COc1cc(C(=O)N2CCC[C@@H](N)C2)cc2nc(-c3cc4ccccc4n3CC3CC3)n(CC3CN(C(=O)c4ccc(C#N)cc4)C3)c12` [Example 180, 4-[3-({5-[(3R)-3-aminopiperidine-1-carbonyl]-2-[1-(cyclopropylmethyl)-1H-indol-2-yl]-7-methoxy-1H-1,3-benzodiazol-1-yl}methyl)azetidine-1-carbonyl]benzonitrile], with 95 nM. Turning to `COc1cc(C(=O)N2CC3CCC2[C@@H]3N)cc2nc(-c3cc4ccccc4n3CC3CC3)n(CC3CN(C(=O)c4cnc(C#N)nc4)C3)c12` (stereo partly drawn) [Example 463, 5-[3-({5-[(7R)-7-amino-2-azabicyclo[2.2.1]heptane-2-carbonyl]-2-[1-(cyclopropylmethyl)-1H-indol-2-yl]-7-methoxy-1H-1,3-benzodiazol-1-yl}methyl)azetidine-1-carbonyl]pyrimidine-2-carbonitrile], the IC50 amounted to 73 nM. To `COc1cc(C(=O)N2CC3CCC2[C@@H]3N)cc2nc(-c3cc4ccccc4n3CC3CC3)n(Cc3cnn(-c4ncccn4)c3)c12` (stereo partly drawn) [Example 402, (7R)-2-{2-[1-(cyclopropylmethyl)-1H-indol-2-yl]-7-methoxy-1-{[1-(pyrimidin-2-yl)-1H-pyrazol-4-yl]methyl}-1H-1,3-benzodiazole-5-carbonyl}-2-azabicyclo[2.2.1]heptan-7-amine] belongs 66 nM; to `COc1cc(C(=O)N2C[C@H](N)CC[C@@H]2C)cc2nc(-c3cc4ccccc4n3CC3CC3)n(CC3CN(C(=O)c4ccc(C#N)cc4)C3)c12` [Example 176, 4-[3-({5-[(2S,5R)-5-amino-2-methylpiperidine-1-carbonyl]-2-[1-(cyclopropylmethyl)-1H-indol-2-yl]-7-methoxy-1H-1,3-benzodiazol-1-yl}methyl)azetidine-1-carbonyl]benzonitrile], 80 nM; to `COc1cc(C(=O)N2C[C@H](N)C[C@@H](F)C2)cc2nc(-c3cc4cccnc4n3CC3CC3)n(Cc3cnn(C)c3)c12` [Example 250, ((3R,5R)-3-amino-5-fluoropiperidin-1-yl)(2-(1-(cyclopropylmethyl)-1H-pyrrolo[2,3-b]pyridin-2-yl)-7-methoxy-1-((1-methyl-1H-pyrazol-4-yl)methyl)-1H-benzo[d]imidazol-5-yl)methanone], 89 nM. As to `COc1cc(C(=O)N2CC3CCC2[C@@H]3N)cc2nc(-c3cc4ccccc4n3CC3CC3)n(CC3CN(C(=O)c4ccc(Cl)s4)C3)c12` (stereo partly drawn) [Example 445, (7R)-2-(1-{[1-(5-chlorothiophene-2-carbonyl)azetidin-3-yl]methyl}-2-[1-(cyclopropylmethyl)-1H-indol-2-yl]-7-methoxy-1H-1,3-benzodiazole-5-carbonyl)-2-azabicyclo[2.2.1]heptan-7-amine], the IC50 worked out at 43 nM. Consider `COc1cc(C(=O)N2C[C@H]3CC[C@@H]2[C@@H]3N)cc2nc(-c3cc4cccnc4n3CC3CC3)n(CC3CN(c4ccnc(C)c4)C3)c12` [Example 51, (1R,4R,7R)-2-{2-[1-(cyclopropylmethyl)-1H-pyrrolo[2,3-b]pyridin-2-yl]-7-methoxy-1-{[1-(2-methylpyridin-4-yl)azetidin-3-yl]methyl}-1H-1,3-benzodiazole-5-carbonyl}-2-azabicyclo[2.2.1]heptan-7-amine], for which the IC50 is 152 nM.
